# From ChEMBL document CHEMBL1201862, “PubChem BioAssay data set” (2004)
# Active and inactive are the calls of the source.
# Tests used:
# [1] = cytotoxicity toward NIH3T3 fibroblasts, dose response, counter-screen, cell-based, ATP luminescence, mouse fibroblasts (AID 2010); format: functional;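 note: cells exposed to compound for about 90 hours before reading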
# [2] = inhibitors of intracellular T. cruzi replication, confirmation, NIH3T3 host cells, beta-gal luminescence (AID 2044); format: functional, cell-based;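 note: intracellular parasites grown in NIH/3T3 mouse fibroblasts as host cells; luminescent beta-galactosidase reporter signal from transgenic T. cruzi replicating inside host cells; inhibitors lower the luminescence signal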
# Cytochrome P450 2C19 = Cytochrome P450 2C19 (Homo sapiens, UniProt P33261); experiment: Cytochrome panel assay with activity outcomes. Panel member name: p450-cyp2c19 Compounds with AC50 equal or less than 10 uM are considered active; format: functional
# Cytochrome P450 2C19, sequence (P33261 whole entry): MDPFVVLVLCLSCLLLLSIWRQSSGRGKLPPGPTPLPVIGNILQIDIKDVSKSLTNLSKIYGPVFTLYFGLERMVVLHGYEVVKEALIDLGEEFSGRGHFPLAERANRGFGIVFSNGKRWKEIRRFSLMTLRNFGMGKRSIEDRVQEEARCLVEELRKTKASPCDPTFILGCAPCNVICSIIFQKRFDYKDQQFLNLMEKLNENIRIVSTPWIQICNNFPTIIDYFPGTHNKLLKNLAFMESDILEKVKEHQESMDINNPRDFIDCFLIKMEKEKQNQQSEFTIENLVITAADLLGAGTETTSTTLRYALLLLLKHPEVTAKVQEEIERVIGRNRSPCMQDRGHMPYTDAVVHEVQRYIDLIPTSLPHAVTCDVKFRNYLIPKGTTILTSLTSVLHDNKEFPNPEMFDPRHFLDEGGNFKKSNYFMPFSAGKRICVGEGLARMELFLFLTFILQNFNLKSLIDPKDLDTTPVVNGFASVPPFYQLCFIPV
SMILES,EC50 [1],EC50 [2],AC50 (Cytochrome P450 2C19),AC50 (Cytochrome P450 2C19; read-out: AC50)
COc1ccc(/C=N\N=C(N)N)cc1,> 60 µM (not active),0.854 µM (active),–,–
CN(C)C(=N)NCCC[C@H](N)C(=O)O,–,–,inconclusive,–
CN1CCC(N(C)C(=O)c2ccccc2Nc2ccc(SC(F)F)cc2)CC1,> 60 µM (not active),0.384 µM (active),–,–
c1csc(CNCCCN2CCOCC2)c1,–,–,–,14.1 µM (inconclusive)
CC(C)(C)C1CCC(OCC(O)CN2CCN(Cc3ccccc3)CC2)CC1 (stereo not given),> 60 µM (not active),1.15 µM (active),–,–
Cc1nc2c(-c3ccccc3)cnn2c(O)c1Cc1ccccc1,14.6 µM (active),2.22 µM (active),–,–
O=C(c1ccc2c(c1)OCO2)C1CCCN(C2CCN(CCc3ccccc3)CC2)C1 (stereo not given),> 60 µM (not active),1.72 µM (active),–,–
COc1cccc(CC2(CO)CCCN(Cc3ccc(-c4ccco4)cc3)C2)c1 (stereo not given),> 60 µM (not active),0.621 µM (active),–,–
Cc1nc2cnc(Oc3cccc(Cl)c3)nc2n(CCc2ccccc2)c1=O,–,–,–,7.94 µM (inconclusive)
CCOC(=O)Nc1ccc2c(c1)N(C(=O)CCN1CCOCC1)c1ccccc1S2 [MORICIZINE],> 60 µM (not active),5.85 µM (active),–,–
O=C(Nc1cc(Sc2nc3ccccc3s2)cc([N+](=O)[O-])c1)c1ccccc1,> 60 µM (not active),1.42 µM (active),–,–
Cc1ccc(-n2cc(CN(C)Cc3ncc[nH]3)c(-c3cccc(C)c3)n2)cc1,> 60 µM (not active),1.16 µM (active),–,–
COc1ccc(CCn2c(SCCN3CCCCC3)nc3ccccc3c2=O)cc1OC,> 60 µM (not active),0.936 µM (active),–,–
O=C(NC1CCCN(CCc2ccccc2)C1)C1CCCC1 (stereo not given),> 60 µM (not active),1.3 µM (active),–,–
O[C@@H]1[C@@H](OCc2ccccc2)OC[C@H](O)[C@@H]1O,–,–,inconclusive,–
COc1ccc(Oc2nc3ccccc3nc2C(F)(F)F)cc1,–,–,–,3.16 µM (inconclusive)

SMILES,EC50 [1],EC50 [2],AC50 (Cytochrome P450 2C19),AC50 (Cytochrome P450 2C19; read-out: AC50)
CC(C)CC(=O)O/N=C1\C(=O)N(Cc2ccc(Cl)cc2)c2ccc([N+](=O)[O-])cc21,–,4.6 µM (active),–,–
CCN(CC)S(=O)(=O)c1ccc2c(c1)c(=O)c(C(=O)NCCN(C)CCc1ccccc1)cn2C,> 60 µM (not active),0.991 µM (active),–,–
C[C@@H]1/C=C\CC(=O)OC[C@H](C)C(=O)N[C@@H](C)C(=O)OC1,–,–,inconclusive,–
COc1ccc(N=C(S)NC(NC(=O)c2cccc3ccccc23)C(Cl)(Cl)Cl)c([N+](=O)[O-])c1 (stereo not given),> 30 µM (not active),2.25 µM (active),–,–
Cc1cc(C)cc(Oc2ncnc3c2ncn3Cc2c(Cl)cccc2Cl)c1,> 60 µM (not active),1.95 µM (active),–,–
Cc1nc(NC(=O)c2ccccc2)sc1-c1csc(NCCc2ccccc2)n1,> 60 µM (not active),2.25 µM (active),–,–
CN(Cc1ccco1)c1ccnc(-c2cccc(NS(C)(=O)=O)c2)n1,–,–,–,25.1 µM (inconclusive)
CC(=O)Nc1ccc(/C(C)=N/Nc2nc(Nc3ccccc3)nc(N3CCOCC3)n2)cc1,50.7 µM (active),0.345 µM (active),–,–
CC(=O)NCCNc1ncncc1-c1ccc(N(C)C)cc1,–,–,–,20 µM (inconclusive)
Cc1cccc(CNc2ncnc3ccc(-c4cccnc4)cc23)c1,–,–,–,39.8 µM (inconclusive)
O[C@@H](c1cc(-c2ccc(Cl)cc2)nc2ccccc12)[C@@H]1CCCCN1,–,–,–,6.31 µM (inconclusive)
Cc1nn(-c2ccc(F)cc2)c2nc(N)c(C#N)c(-c3ccc(O)c(O)c3)c12,15.6 µM (active),2.04 µM (active),–,–
CCn1c(SCC(=O)Nc2sc3c(c2C#N)CCC(C(C)(C)C)C3)nnc1-c1ccco1 (stereo not given),–,–,–,20 µM (inconclusive)
CN1CCN(C(=O)COc2ccc(S(=O)(=O)Nc3ccc(F)cc3)cc2)CC1,> 60 µM (not active),0.142 µM (active),–,–
CN1CCN(CC(O)COCCOc2ccc(Br)cc2)CC1 (stereo not given),> 60 µM (not active),0.542 µM (active),–,–
